According to ChEMBL document CHEMBL2157884, “Scaffold-hopping with zwitterionic CCR3 antagonists: identification and optimisation of a series with good potency and pharmacokinetics leading to the discovery of AZ12436092” (Bioorg Med Chem Lett, 2012):

Columns and labels:
in vitro = settings: human
physchem = settings: buffer, pH 7.4
in vivo = settings: rat, iv
[1] = Oral bioavailability in rat; format: ADME, organism-based; settings: in vivo
Hepatocyte = assay: Intrinsic clearance in rat hepatocytes measured per 10^6 cells; format: ADME, cell-based
[2] = Oral bioavailability in dog; format: ADME, organism-based, Canis lupus familiaris; settings: in vivo
[3] = Half life in iv dosed dog; format: ADME, organism-based, Canis lupus familiaris; settings: in vivo

SMILES | microsomal CLint (in vitro; liver microsomes) [µL/min/mg] | logD (physchem) | other results
N#Cc1cccc(C[C@@H](C(=O)O)N2CCC(CN3CCC(Oc4ccc(Cl)c(Cl)c4)CC3)CC2)c1 | < 5 | 2.3 | 
O=C(O)C(c1ccccc1)N1CCC(N2CCC(Oc3ccc(Cl)c(Cl)c3)CC2)CC1 (racemic) |  |  | half-life (in vivo): 2.4 h; CLint scaled (in vitro; liver microsomes): 6 mL/min/kg; bioavailability [1]: 13%
O=C(O)[C@H](Cc1ccccc1)N1CCC(CN2CCC(Oc3ccc(Cl)c(Cl)c3)CC2)CC1 | < 3 | 2.5 | half-life (in vivo): 12 h; bioavailability [1]: 62%
O=C(O)[C@H](Cc1cccc(F)c1)N1CCC(CN2CCC(Oc3ccc(Cl)c(Cl)c3)CC2)CC1 |  | 2.7 | 
O=C(O)[C@@H](Cc1ccccc1)N1CCC(CN2CCC(Oc3ccc(Cl)c(Cl)c3)CC2)CC1 | < 3 | 2.5 | 
O=C(O)[C@@H](c1ccccc1)N1CCC(CN2CCC(Oc3ccc(Cl)c(Cl)c3)CC2)CC1 |  |  | half-life (in vivo): 4.8 h; CLint scaled (in vitro; microsomes): < 3 mL/min/kg; bioavailability [1]: 5%
Cc1cc(OC2CCN(CC3CCN([C@@](C)(Cc4ccc(F)cc4)C(=O)O)CC3)CC2)ccc1Cl |  | 2.1 | bioavailability [1]: 84%
O=C(O)[C@H](Cc1ccccc1F)N1CCC(CN2CCC(Oc3ccc(Cl)c(Cl)c3)CC2)CC1 |  | 2.6 | 
Cc1ccccc1C[C@@H](C(=O)O)N1CCC(CN2CCC(Oc3ccc(Cl)c(Cl)c3)CC2)CC1 | < 3 | 2.5 | 
Cc1c(OC2CCN(CC3CCN([C@@H](Cc4ccc(F)cc4)C(=O)O)CC3)CC2)ccc(Cl)c1Cl | < 3 | 3.5 | half-life (in vivo): 10 h; CLH (Hepatocyte): < 3 µL/min/1e6 cells
Cc1c(OC2CCN(CC3CCN([C@@](C)(Cc4ccc(F)cc4)C(=O)O)CC3)CC2)ccc(Cl)c1Cl |  | 3 | 
O=C(O)[C@H](Cc1cccc(C(F)(F)F)c1)N1CCC(CN2CCC(Oc3ccc(Cl)c(Cl)c3)CC2)CC1 | 7 |  | 
N#Cc1ccc(C[C@@H](C(=O)O)N2CCC(CN3CCC(Oc4ccc(Cl)c(Cl)c4)CC3)CC2)cc1 |  | 2.2 | 
N#Cc1ccccc1C[C@@H](C(=O)O)N1CCC(CN2CCC(Oc3ccc(Cl)c(Cl)c3)CC2)CC1 |  | 2.1 | microsomal CLint (in vitro; microsomes): 6 µL/min/mg
Cc1cc(F)ccc1OC1CCN(CC2CCN([C@@H](Cc3ccc(F)cc3)C(=O)O)CC2)CC1 | < 3 |  | 
O=C(O)C(c1ccccc1)N1CCCC(CN2CCC(Oc3ccc(Cl)c(Cl)c3)CC2)C1 (mixture of isomers) |  |  | CLint scaled (in vitro; liver microsomes): < 3 mL/min/kg
Cc1cccc(C[C@@H](C(=O)O)N2CCC(CN3CCC(Oc4ccc(Cl)c(Cl)c4)CC3)CC2)c1 | < 6 | 2.8 | 
Cc1cc(F)ccc1OC1CCN(CC2CCN([C@@](C)(Cc3ccc(F)cc3)C(=O)O)CC2)CC1 |  | 2 | bioavailability [1]: 24%
O=C(O)[C@H](Cc1ccccc1Cl)N1CCC(CN2CCC(Oc3ccc(Cl)c(Cl)c3)CC2)CC1 | < 5 |  | 
O=C(O)[C@H](Cc1ccc(F)cc1)N1CCC(CN2CCC(Oc3ccc(Cl)cc3)CC2)CC1 |  | 1.9 | 
O=C(O)C(c1ccccc1)N1CCC(CN2CCC(Oc3ccc(Cl)c(Cl)c3)CC2)CC1 (racemic) |  |  | CLint scaled (in vitro; microsomes): < 3 mL/min/kg
Cc1ccc(S(=O)(=O)NC(=O)N2CCC(N3CCC(Oc4ccc(Cl)c(Cl)c4)CC3)CC2)cc1 |  |  | half-life (in vivo): 2.7 h; CLint scaled (in vitro; liver microsomes): 1 mL/min/kg; bioavailability [1]: 30%
Cc1c(OC2CCN(CC3CCN([C@@H](Cc4ccc(F)cc4)C(=O)O)CC3)CC2)ccc(C#N)c1Cl |  | 2.2 | microsomal CLint (in vitro; microsomes): 6 µL/min/mg
O=C(O)[C@H](c1ccccc1)N1CCC(CN2CCC(Oc3ccc(Cl)c(Cl)c3)CC2)CC1 |  |  | CLint scaled (in vitro; microsomes): < 3 mL/min/kg
COc1ccccc1C[C@@H](C(=O)O)N1CCC(CN2CCC(Oc3ccc(Cl)c(Cl)c3)CC2)CC1 | 8 | 2.8 | 
Cc1c(Cl)ccc(OC2CCN(CC3CCN([C@@H](Cc4ccc(F)cc4)C(=O)O)CC3)CC2)c1Cl | < 3 | 3.2 | half-life (in vivo): 0.8 h
O=C(O)C(c1ccccc1)N1CCO[C@H](CN2CCC(Oc3ccc(Cl)c(Cl)c3)CC2)C1 (mixture of isomers) |  |  | bioavailability [1]: 36%
Cc1cc(Cl)ccc1OC1CCN(CC2CCN([C@@H](Cc3ccc(F)cc3)C(=O)O)CC2)CC1 |  | 2.5 | 
Cc1cc(Cl)ccc1OC1CCN(CC2CCN([C@@](C)(Cc3ccc(F)cc3)C(=O)O)CC2)CC1 |  | 2.6 | bioavailability [2]: 83%; half-life (in vivo): 8.7 h; half-life [3]: 12 h; bioavailability [1]: 52%

Now from value to molecule, other results behind:

microsomal CLint (in vitro; liver microsomes) [µL/min/mg] | logD (physchem) | SMILES | other results
 | 2 | O=C(O)COc1ccccc1N1CCC(CN2CCC(Oc3ccc(Cl)c(Cl)c3)CC2)CC1 | 
 | 1.6 | O=C(O)Cc1cccc(N2CCC(CN3CCC(Oc4ccc(Cl)c(Cl)c4)CC3)CC2)c1 | 
< 3 | 2.9 | O=C(O)[C@H](Cc1ccc(Cl)cc1)N1CCC(CN2CCC(Oc3ccc(Cl)c(Cl)c3)CC2)CC1 | 
 | 2 | O=C(O)COc1cccc(N2CCC(CN3CCC(Oc4ccc(Cl)c(Cl)c4)CC3)CC2)c1 | 
 | 2.3 | O=C(O)c1ccc(N2CCC(CN3CCC(Oc4ccc(Cl)c(Cl)c4)CC3)CC2)cc1 | 
 | 1.1 | O=C(O)c1ccc(CN2CCC(CN3CCC(Oc4ccc(Cl)c(Cl)c4)CC3)CC2)cc1 | 
14 | 3 | Cc1ccc(C[C@@H](C(=O)O)N2CCC(CN3CCC(Oc4ccc(Cl)c(Cl)c4)CC3)CC2)cc1 | 
4 | 2.6 | O=C(O)[C@H](Cc1ccc(F)cc1)N1CCC(CN2CCC(Oc3ccc(Cl)c(Cl)c3)CC2)CC1 | 
 | 2.2 | O=C(O)c1cccc(N2CCC(CN3CCC(Oc4ccc(Cl)c(Cl)c4)CC3)CC2)c1 | 
 | 2.8 | O=C(O)c1ccccc1N1CCC(CN2CCC(Oc3ccc(Cl)c(Cl)c3)CC2)CC1 | half-life (in vivo): 4.1 h; bioavailability [1]: 58%
 | 1.8 | O=C(O)Cc1ccc(N2CCC(CN3CCC(Oc4ccc(Cl)c(Cl)c4)CC3)CC2)cc1 | 
 | 1.7 | O=C(O)c1cccnc1N1CCC(CN2CCC(Oc3ccc(Cl)c(Cl)c3)CC2)CC1 | 
